Experimental data reported in patent US11065263B2, “Sterol composition in pumpkin seed oil and application thereof, and drug for treating benign prostatic hyperplasia” (Hunan Zhongkewentai Bio-tech co.Ltd, priority 2019, dated 2021).

Assays:
Type in all cases: in vivo, SD (Sprague Dawley) rats
[1] = system: benign prostatic hyperplasia rats treated with testosterone propionate; assay: prostate weight and prostate index in benign prostatic hyperplasia rats treated with testosterone propionate; settings: finasteride group
Method: : modeling, particularly comprising steps of: […]: respectively weighing six groups of SD rats; […] The drug is administrated by gavage once a day; after administrating for consecutive 6 days, administration is stopped for one day; and an administration cycle is 4 week. Respectively weighing SD rats of six groups two hours after last administration and after fasting for 12 hours; killing the SD rats, separating the prostate of the SD rats through the tweezers, and weighing the prostate;

[2] = system: prostate tissue of benign prostatic hyperplasia rats; assay: prostate tissue appearance and HE stain morphology in benign prostatic hyperplasia rats; settings: finasteride group, 0.28 mg/kg
Source text: The drug is administrated by gavage once a day; after administrating for consecutive 6 days, administration is stopped for one day; and an administration cycle is 4 week. killing the SD rats, separating the prostate of the SD rats through the tweezers, and weighing the prostate; […]

[3] = system: SRC-1 (steroid receptor coactivator-1); assay: immunohistochemical measurement of SRC-1 in the prostate; settings: finasteride group, 0.28 mg/kg
Method: S3023: according to a dose of 4 mg/kg, which is calculated through equivalent conversion according to the body surface areas of humans and animals, hypodermically injecting the testosterone propionate injection to each SD rat for consecutive 30 days, and injecting normal saline of same volume to the SD rats of normal group, so as to finish modeling.
The high-dose group adopts an administration dose of 10 mg/kg (which is calculated through equivalent conversion according to the body surface areas of humans and animals; when the weight of the SD rat is 1 kg, 10 mg of the sterol composition in the pumpkin seed oil prepared through the example 1 is administrated), the medium-dose group adopts an administration dose of 3.3 mg/kg, and the low-dose group adopts an administration dose of 1.1 mg/kg, which respectively correspond to 20 times, 6.66 times, and 2.22 times the clinical dose. Before drug administration, suspensions of 4.5 mg/mL, 1.5 mg/mL, and 0.5 mg/mL are respectively prepared with the corn oil. […] The drug is administrated by gavage once a day; after administrating for consecutive 6 days, administration is stopped for one day; and an administration cycle is 4 week. […]

5α-reductase = assay: RT-qPCR genetic expression of 5α-reductase in the prostate; settings: finasteride group, 0.28 mg/kg, compared with the model group
[4] = rat weight after 4 week administration in benign prostatic hyperplasia rats; settings: finasteride group, 0.28 mg/kg by gavage once a day

Rat weight [4]: 439.2 ± 32.7 g
SMILES: CC(C)(C)NC(=O)[C@H]1CC[C@H]2[C@@H]3CC[C@H]4NC(=O)C=C[C@]4(C)[C@H]3CC[C@]12C [Finasteride, finasteride]
decrease of prostate weight compared with the model group ([1]; 0.28 mg/kg): 19.1%
Prostate weight ([1]; 0.28 mg/kg by gavage once a day, 4 week): 868.4 ± 188.3 mg
HE stain morphology of the prostate tissue (FIG. 3) [2]: part of the multiple-layer epithelial cells in the prostate tissue recover to the single-layer epithelial cells
volume of the prostate tissue compared with the model group (FIG. 2) [2]: obviously decreased
genetic expression of SRC-1, immunohistochemical method (FIG. 4) [3]: obviously decreased
genetic expression quantity of 5α-reductase, RT-qPCR (FIG. 5) (5α-reductase): obviously decreased
